Results from patent US20250084091A1, “INHIBITORS OF SARS-COV-2” (The Texas A&M University System, priority 2021, published 2025).
Where two headings read alike, the source gives them in different places.

Columns and labels:
[1] = test system: HeLa-ACE2 cells; assay: cells; format: cell-based; settings: Table 2, total cell count in infected plates
[2] = test system: SARS-CoV-2 (strain USA-WA1/2020); assay: microbe, parasite or virus in culture; format: cell-based
[3] = target: SARS-CoV-2 main protease (Mpro) (Severe acute respiratory syndrome coronavirus 2, UniProt P0DTD1); assay: biochemical; settings: read-out: Enzyme IC50
[4] = Uninfected host cell cytotoxicity counter screen; format: cell-based; settings: human
Experimental: Uninfected host cell cytotoxicity counter screen: HeLa-ACE2 cells were maintained as described for the infection assay and seeded in the assay-ready plates at 400 cells/well. Plates were incubated for 24 hours at 37° C. 5% CO2. To assess cell viability, the Image-iT DEAD green reagent was used according to manufacturer instructions. Cells were fixed with 4% paraformaldehyde, and counterstained with DAPI. Fixed cells are imaged as described above.
Viral replication data analysis: Data from the primary screen and the host cell cytotoxicity screen are normalized to neutral (DMSO) […] inhibitor controls (2.5 μM Remdesivir for antiviral effect and 10 μM puromycin for infected host cell toxicity). For the uninfected host cell cytotoxicity counter-screen 40 μM puromycin is used as the positive control. Concentration response experiments will be tested in triplicate.

[5] = Severe acute respiratory syndrome coronavirus 2, Table 2, SARS-CoV-2 infected HeLa-ACE2 cells, read-out: CoV-2 HeLa EC50
[6] = Severe acute respiratory syndrome coronavirus 2, HeLa-ACE2, read-out: CoV-2 HeLa EC50, Table 2, SARS-CoV-2 infected HeLa-ACE2 cells

| SMILES | EC50 [1] [µM] | EC50 [2, 5] [µM] | IC50 ([3]; Table 2) [µM] | CC50 at 24 h [4] [µM] | EC50 [2, 6] [µM] | CC50 at 24 h ([4]; Table 2, uninfected cells, 24 hours, read-out: Uninfected HeLa-ACE2 CC50) [µM] | EC50 ([2]; Severe acute respiratory syndrome coronavirus 2, HeLa, Table 3, read-out: CoV-2 HeLa EC50) [µM] | IC50 ([3]; Table 3, select example compounds against mpro) [µM] |
| --- | --- | --- | --- | --- | --- | --- | --- | --- |
| O=C1CC(C(=O)N2CCN(C3c4ccccc4CCc4ccccc43)CC2)c2ccccc2N1 (stereo not drawn) [ZS-324, 4-[4-(2-tricyclo[9.4.0.03,8]pentadeca-1(11),3(8),4,6,12,14-hexaenyl)piperazine-1-carbonyl]-3,4-dihydro-1H-quinolin-2-one] | > 9.61 | 2.79 | 0.54 | 21.1 |  |  |  |  |
| c1ccc(C(c2ccccc2)N2CCN(c3nccc4ccncc34)CC2)cc1 [AA-649, 1-(4-benzhydrylpiperazin-1-yl)-2,7-naphthyridine] | > 9.61 |  |  | > 39.8 | > 9.61 |  |  |  |
| O=C(O)c1cncc(C(=O)N2CCN(C3c4ccccc4CCc4ccccc43)CC2)c1 [ZS-335, 5-[4-(2-tricyclo[9.4.0.03,8]pentadeca-1(11),3(8),4,6,12,14-hexaenyl)piperazine-1-carbonyl]pyridine-3-carboxylic acid] | > 9.61 |  |  | > 39.8 | > 9.61 |  |  |  |
| O=C(c1ccon1)N1CCN(C(c2ccccc2)c2ccccc2)CC1 [MKP-1324, 1-(diphenylmethyl)-4-(1,2-oxazole-3-carbonyl)piperazine] | > 9.61 |  |  | > 39.8 | > 9.61 |  |  |  |
| O=C1CC(CC(=O)N2CCN(C3c4ccccc4CS(=O)(=O)c4ccccc43)CC2)c2ccccc2N1 (stereo not drawn) [NZ-811, 4-[2-[4-(5,5-dioxo-6,11-dihydrobenzo[c][1]benzothiepin-11-yl)piperazin-1-yl]-2-oxo-ethyl]-3,4-dihydro-1H-quinolin-2-one] | > 9.61 |  |  | > 39.8 | > 9.61 |  |  |  |
| O=C(c1cncs1)N1CCN(C(c2ccccc2)c2ccccc2)CC1 [MKP-1318, 1-(diphenylmethyl)-4-(1,3-thiazole-5-carbonyl)piperazine] | > 9.61 |  |  | > 39.8 | > 9.61 |  |  |  |
| Cc1oncc1C(=O)N1CCN(C(c2ccccc2)c2ccccc2)CC1 [MKP-1332, (4-benzhydrylpiperazin-1-yl)(5-methylisoxazol-4-yl)methanone] | > 9.61 |  |  | > 39.8 | > 9.61 |  |  |  |
| O=C1CC(C(=O)N2CCC(C(O)(c3ccccc3)c3ccccc3)CC2)CN1 (stereo not drawn) [NZ-790, 4-[4-(hydroxydiphenylmethyl)piperidine-1-carbonyl]pyrrolidin-2-one] | > 9.61 |  |  | > 39.8 | > 9.61 |  |  |  |
| O=C(c1cnc(Cl)c(Cl)c1)N1CCN(C(c2ccccc2)c2ccccc2)CC1 [AA-608, (4-benzhydrylpiperazin-1-yl)(5,6-dichloropyridin-3-yl)methanone] | 0.863 | 1.74 |  | > 39.8 |  |  |  |  |
| Cc1cncc(NC(=O)N2CCN(C(c3ccccc3)c3ccccc3)CC2)c1 [MKP-1323, 4-benzhydryl-N-(5-methylpyridin-3-yl)piperazine-1-carboxamide] | > 9.61 |  |  | 31.7 | > 9.61 |  |  |  |
| O=C(c1cccnc1Cl)N1CCN(C2c3ccccc3CCc3ccccc32)CC1 [ZS-333, (2-chloro-3-pyridyl)-[4-(2-tricyclo[9.4.0.03,8]pentadeca-1(11),3(8),4,6,12,14-hexaenyl)piperazin-1-yl]methanone] | > 9.61 |  |  | > 39.8 | > 9.61 |  |  |  |
| Nc1ncc(C(=O)N2CCN(C(c3ccccc3)c3ccccc3)CC2)cn1 [MKP-1322, 5-[4-(diphenylmethyl)piperazine-1-carbonyl]pyrimidin-2-amine] | > 9.61 |  |  | > 39.8 | > 9.61 |  |  |  |
| O=C(NC1CN(C(c2ccccc2)c2ccccc2)C1)c1cccnc1 [AA-603, N-(1-benzhydrylazetidin-3-yl)nicotinamide] | > 9.61 |  |  | > 39.8 | > 9.61 |  |  |  |
| C=C(C)C(=O)N1CCN(C(c2ccccc2)c2ccccc2)CC1 [MKP-1219, 1-[4-(diphenylmethyl)piperazin-1-yl]-2-methylprop-2-en-1-one] | > 9.61 |  |  | > 39.8 | > 9.61 |  |  |  |
| N#CC(c1cccnc1)N1CCN(C(c2ccccc2)c2ccccc2)CC1 (stereo not drawn) [MKP-1306, 2-[4-(diphenylmethyl)piperazin-1-yl]-2-(pyridin-3-yl)acetonitrile] | > 9.61 |  |  | > 39.8 | > 9.61 |  |  |  |
| O=Cc1ccccc1C(=O)N1CCC(C(O)(c2ccccc2)c2ccccc2)CC1 [NZ-791, 2-[4-(hydroxydiphenylmethyl)piperidine-1-carbonyl]benzaldehyde] | > 9.61 |  |  | > 39.8 | > 9.61 |  |  |  |
| N#Cc1ccc(C(=O)N2CCN(C(c3ccccc3)c3ccccc3)CC2)cn1 [MKP-1229, 5-[4-(diphenylmethyl)piperazine-1-carbonyl]pyridine-2-carbonitrile] | > 9.61 |  |  | > 39.8 | > 9.61 |  |  |  |
| O=C(c1cnc2ccccc2c1)N1CCN(C(c2ccccc2)c2ccccc2)CC1 [MKP-1167, 3-[4-(diphenylmethyl)piperazine-1-carbonyl]quinoline] | > 9.61 |  |  | > 39.8 | > 9.61 |  |  |  |
| O=C(c1ccc(Cl)nc1)N1CCN(C2c3ccccc3CCc3ccccc32)CC1 [ZS-337, (6-chloro-3-pyridyl)-[4-(2-tricyclo[9.4.0.03,8]pentadeca-1(11),3(8),4,6,12,14-hexaenyl)piperazin-1-yl]methanone] | > 9.61 |  |  | > 39.8 | > 9.61 |  |  |  |
| Cc1cncc(CN2CCN(C(c3ccccc3)c3ccccc3)CC2=O)c1 [AA-645, 4-benzhydryl-1-((5-methylpyridin-3-yl)methyl)piperazin-2-one] | > 9.61 |  |  | > 39.8 | > 9.61 |  |  |  |
| Cc1cncc(CN2CCN(C(c3ccccc3)c3ccccc3)CC2)c1 [MKP-1307, 1-(diphenylmethyl)-4-[(5-methylpyridin-3-yl)methyl]piperazine] | > 9.61 |  |  | > 39.8 | > 9.61 |  |  |  |
| Cc1ccc(C(=O)N2CCN(C(c3ccccc3)c3ccccc3)CC2)cn1 [AA-612, (4-benzhydrylpiperazin-1-yl)(6-methylpyridin-3-yl)methanone] | 0.863 | 1.74 |  | > 39.8 |  |  |  |  |
| Cc1cncc(C(=O)N2CC3CC(C2)N3C(c2ccccc2)c2ccccc2)c1 [AA-614, (6-benzhydryl-3,6-diazabicyclo[3.1.1]heptan-3-yl)(5-methylpyridin-3-yl)methanone] | > 9.61 |  |  |  | > 9.61 | > 39.8 |  |  |
| O=C(c1cncc2cn[nH]c12)N1CCN(C2c3ccccc3CS(=O)(=O)c3ccccc32)CC1 (stereo not drawn) [NZ-822, [4-(5,5-dioxo-6,11-dihydrobenzo[c][1]benzothiepin-11-yl)piperazin-1-yl]-(1H-pyrazolo[4,3-c]pyridin-7-yl)methanone] |  |  |  |  |  |  | 0.089 | 0.054 |
| Nc1ccc(C(=O)N2CCN(C(c3ccccc3)c3ccccc3)CC2)cn1 [MKP-1309, 5-[4-(diphenylmethyl)piperazine-1-carbonyl]pyridin-2-amine] | > 9.61 |  |  | > 39.8 | > 9.61 |  |  |  |
| O=C1CC(C(=O)N2CCC(C(O)(c3ccccc3)c3ccccc3)CC2)CCN1 (stereo not drawn) [NZ-789, 4-[4-(hydroxydiphenylmethyl)piperidine-1-carbonyl]piperidin-2-one] | > 9.61 |  |  | > 39.8 | > 9.61 |  |  |  |
